Measured values: patent US20220211731A1, “COMPOSITION FOR PROMOTING GLP-1 SECRETION” (SUNTORY HOLDINGS LIMITED, priority 2019, published 2022)

Legend:
H716 = experiment: GLP-1 secretion amount of sweeteners, Experimental Example 1; assay type: cell-based, human; settings: H716, stock solution added, quantitation after further 24 hours, PBS as negative control, FIG. 1
Experimental: RebA, RebB, RebM, RebN, RebD, RebC, MogV, and stevioside were examined for their GLP-1 secretion-promoting effects. Specifically, the amount of GLP-1 secretion was measured by the following procedures.
Each test substance B, C, D, E, F, G, I, or J vas dissolved in PBS (Thermo Fisher Scientific Inc.) (Cat. No. 14190250) to obtain a stock solution. The concentration of the stock solution is shown below:
B (RebA); 5 mM, C (RebB); 1M, D (RebM); 2.5 mM, E (RebN); 1M, F (RebD); 2.5 mM, G (RebC); 2.5 mM, I (MogV); 1M, J(stevioside);1M
H716 (ATCC) (Cat. No. ATCC® CCL-251) was cultured in RPMI 1640 (10% FBS ((Thermo Fisher Scientific Inc.) (Cat. No. 10439024), 1 mM Sodium Pyruvate) in an incubator at 37° C., 5% CO2.
The preculture was performed for 2 weeks, and the cells were sufficiently recovered, and then cell stocks were prepared.
Cells were seeded in 96-well plates at 2×10^5 cells/90 μL (high) per well (N=4). At this time, the content of FBS in the medium was lowered to 0.5% to suppress cell proliferation.
After 24 hours, the sample at the highest concentration (i.e., stock solution) was added by 10 each.
After further 24 hours, quantitation of GLP-1 was performed. Specific procedures were followed the user guide of Human GLP-1 (7-36 amide) immunoassay kit (Cat. No. AL359) (Lot number 2361115) provided by PerkinElmer, Inc. PBS was used as a negative control (no sample).

[1] = Dissolution of sample in 1% DMSO-containing PBS; assay type: physicochemical; settings: final concentration of 1.5 mM (#24)
Experimental: To 20 mg of RebC, 21 μL of DMSO (manufactured by FUJIFILM Wako Pure Chemical Corporation, model number: 037-24053) was added. The mixture was then stirred by vortex and allowed to stand for several hours to obtain a stock solution having a RebC concentration of 1,000 mM. The obtained stock solution and PBS were used to prepare a 10 mM solution.
The 10 mM solution was diluted as needed with 1% DMSO-containing PBS to obtain Sample G-1 mM to Sample G-10 mM. The concentrations of RebC are described in Table 1.
For Sample B processed, final concentrations of 0.025 mM (#11) and 0.05 mM (#12) were added to the concentrations to be tested (0.1 to 2.5 mM).

[2] = Measurement of surface tension by plate method; assay type: physicochemical; settings: compared with other glycosides
Experimental: Surface tension Q is measured by a plate method. For example, a glycoside sweetener, which is a test substance, is added in an amount to have Brix 10 on a sucrose basis to prepare an aqueous solution. The surface tension of the prepared aqueous solution is measured by a plate method using an automatic surface tension meter (CBVP-Z type, manufactured by Kyowa Interface Science Co., Ltd).
Aqueous solutions containing RebA, RebD, and RebM (commercially available products) each were prepared. The contents of RebA, RebD, and RebM were aligned to Brix 10 on a sucrose basis. That is, the contents of RebA, RebD, and RebM were 333 ppm, 351 ppm, and 351 ppm, respectively. The surface tension of the obtained aqueous solution was measured by a plate method using an automatic surface tension meter (CBVP-Z type, manufactured by Kyowa Interface Science Co., Ltd). Water was used as a control and tested in the same manner.

[3] = Distribution ratio between pure water and toluene; assay type: physicochemical; settings: organic layer and aqueous layer could not be separated
Experimental: After each about 100 mL of pure water and toluene was charged into a separatory funnel, 30 mg of each steviol glycoside was added. The separatory funnel was sealed to avoid liquid leakage, and stirred with shaking using a shaker for about 30 minutes, and then allowed to stand. When the liquid layer was separated into two layers, the distribution ratio was measured by LCMS after sampling was performed from each layer.

Row | Compound | amount of GLP-1 secretion compared with no sample (H716) | dissolution of sample [1] | surfactant effect (surface tension) [2] | emulsification phenomenon when measuring the distribution ratio [3]
1 | C=C1C[C@@]23CC[C@H]4[C@@](C)(CCC[C@@]4(C)C(=O)O[C@@H]4O[C@H](CO)[C@@H](O)[C@H](O)[C@H]4O)[C@@H]2CC[C@]1(O[C@@H]1O[C@H](CO)[C@@H](O)[C@H](O)[C@H]1O[C@@H]1O[C@H](CO)[C@@H](O)[C@H](O)[C@H]1O)C3 [stevioside, Stevioside] | significantly larger amounts of GLP-1 secretion than no sample | – | – | –
2 | rebaudioside C [RebC] | significantly larger amounts of GLP-1 secretion than no sample | not able to be dissolved | – | –
3 | rebaudioside B [RebB] | significantly larger amounts of GLP-1 secretion than no sample | – | – | –
4 | C[C@H](CC[C@@H](O[C@@H]1O[C@H](CO[C@@H]2O[C@H](CO)[C@@H](O)[C@H](O)[C@H]2O)[C@@H](O)[C@H](O)[C@H]1O[C@@H]1O[C@H](CO)[C@@H](O)[C@H](O)[C@H]1O)C(C)(C)O)[C@H]1CC[C@@]2(C)[C@@H]3CC=C4[C@@H](CC[C@H](O[C@@H]5O[C@H](CO[C@@H]6O[C@H](CO)[C@@H](O)[C@H](O)[C@H]6O)[C@@H](O)[C@H](O)[C@H]5O)C4(C)C)[C@]3(C)[C@H](O)C[C@]12C [MogV, mogroside V] | significantly larger amounts of GLP-1 secretion than no sample | – | – | –
5 | C=C1C[C@@]23CC[C@H]4[C@@](C)(CCC[C@@]4(C)C(=O)O[C@@H]4O[C@H](CO)[C@@H](O)[C@H](O)[C@H]4O)[C@@H]2CC[C@]1(O[C@@H]1O[C@H](CO)[C@@H](O)[C@H](O[C@@H]2O[C@H](CO)[C@@H](O)[C@H](O)[C@H]2O)[C@H]1O[C@@H]1O[C@H](CO)[C@@H](O)[C@H](O)[C@H]1O)C3 [RebA, Rebaudioside A] | significantly larger amounts of GLP-1 secretion than no sample | – | higher than that of other glycosides | had an emulsification phenomenon
